pKi: −log10 of the molar value.
Columns and labels:
[1] = biological target: Cannabinoid receptor 2 (Mus musculus, UniProt P47936); test: Binding affinity towards mouse spleen cannabinoid receptor 2 using [3H]CP-55940; type: tissue-based
[2] = biological target: Cannabinoid receptor 1 (Rattus norvegicus, UniProt P20272); test: Binding affinity towards rat forebrain cannabinoid receptor 1 using [3H]CP-55940
[3] = biological target: T1, Cannabinoid receptor 1 (Mus musculus, UniProt P47746); test: Binding affinity towards mouse hippocampal membranes cannabinoid receptor 1 using [131I]-(R)-8
[4] = biological target: T1, Cannabinoid receptor 1; test: Binding affinity towards mouse hippocampal membranes cannabinoid receptor 1 using [3H]SR-141,716A

Chain of Cannabinoid receptor 2 (P47936 whole entry): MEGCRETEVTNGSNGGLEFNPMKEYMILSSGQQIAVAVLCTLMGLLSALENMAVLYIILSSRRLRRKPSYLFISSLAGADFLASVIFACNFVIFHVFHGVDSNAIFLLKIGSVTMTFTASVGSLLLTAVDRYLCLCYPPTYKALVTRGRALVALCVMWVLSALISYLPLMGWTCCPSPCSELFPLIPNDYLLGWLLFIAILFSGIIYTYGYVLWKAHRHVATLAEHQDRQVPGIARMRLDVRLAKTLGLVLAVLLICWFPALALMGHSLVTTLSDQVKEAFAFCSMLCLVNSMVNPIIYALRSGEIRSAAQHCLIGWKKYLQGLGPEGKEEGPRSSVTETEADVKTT
Chain of Cannabinoid receptor 1 (Rattus norvegicus, UniProt P20272) (P20272 whole entry): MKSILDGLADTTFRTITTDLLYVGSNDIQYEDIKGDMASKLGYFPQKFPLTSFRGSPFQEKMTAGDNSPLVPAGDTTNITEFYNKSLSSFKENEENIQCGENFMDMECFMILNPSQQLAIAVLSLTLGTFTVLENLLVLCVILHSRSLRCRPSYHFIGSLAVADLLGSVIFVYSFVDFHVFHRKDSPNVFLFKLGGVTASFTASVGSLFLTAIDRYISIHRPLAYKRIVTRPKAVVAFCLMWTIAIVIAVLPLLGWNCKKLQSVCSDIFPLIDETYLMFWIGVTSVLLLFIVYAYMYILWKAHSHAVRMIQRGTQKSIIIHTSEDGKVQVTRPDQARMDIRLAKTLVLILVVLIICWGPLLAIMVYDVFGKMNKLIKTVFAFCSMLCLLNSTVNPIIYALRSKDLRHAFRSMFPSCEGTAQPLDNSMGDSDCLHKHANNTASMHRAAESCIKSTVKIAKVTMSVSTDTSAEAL
T1 sequence (P47746 whole entry): as the sequence (P20272 whole entry) above, with E95D counted along it

| Structure (SMILES) | pKi [1] | pKi [2] | pKi [3] | pKi [4] |
| --- | --- | --- | --- | --- |
| Cc1c(C(=O)c2cccc(I)c2)c2ccccc2n1CC1CCCCN1C (configuration not stated) | 5.02 | 5.54 |  |  |
| CN1CCCC[C@H]1Cn1cc(C(=O)c2ccccc2I)c2ccccc21 |  | 6.25 |  |  |
| Cc1c(C(=O)c2ccccc2I)c2ccccc2n1CC1CCCCN1C (single isomer, unassigned; (+)) | 8.00 | 8.17 |  |  |
| CN1CCCCC1Cn1cc(C(=O)c2cccc3ccccc23)c2ccc(I)cc21 (configuration not stated) | 8.01 | 7.74 |  |  |
| CN1CCCCC1Cn1cc(C(=O)c2ccc(I)c3ccccc23)c2ccccc21 (configuration not stated) | 8.28 |  |  |  |
| Cc1c(C(=O)c2ccccc2I)c2ccccc2n1CC1CCCCN1C (stereo in doubt; 5) | 7.47 | 7.47 |  |  |
| Cc1c(C(=O)c2ccccc2I)c2ccccc2n1CC1CCCCN1C (single isomer, unassigned; (-)) | 7.08 | 5.92 |  |  |
| Cc1c(C(=O)c2ccc(I)cc2)c2ccccc2n1CC1CCCCN1C (configuration not stated) | 6.10 |  |  |  |
| CN1CCCCC1Cn1cc(C(=O)c2ccccc2I)c2ccccc21 (configuration not stated) |  |  | 9.70 | 8.89 |
| CN1CCCCC1Cn1cc(C(=O)c2cccc3ccccc23)c2ccccc21 (configuration not stated) | 8.72 | 9.12 |  |  |
